# Results taken from US8853219B2, “Compounds and compositions for cognition-enhancement, methods of making, and methods of treating” (NeuroSolis, Inc., priority 2010, dated 2014).
# Like-named read-outs stand apart in the source and are kept apart here.
# Tests used:
# [1] = system: inositol phosphate signaling pathway; assay: In vivo measurement of tissue inositol phosphate signaling pathway activation (hippocampus, salivary gland); conditions: rat, Compound 3 1 mg/kg
# Experimental: Experimental compounds or drug substances were administered using standard techniques to Long Evans Hooded rats weighing 225 to 350 grams, and which had been pretreated with a subcutaneous injection of lithium chloride at a suitable dose between 3 and 10 mmoles per kg. At suitable times the animals were briefly anesthetized using 5% isoflurane and euthanized by decapitation. The brains and submaxillary salivary glands were rapidly dissected out, and the hippocampuses were dissected from the brains. The dissected tissues were homogenized in a suitable volume of ice-cold phosphate-buffered saline containing 10 mM lithium chloride, pH7.4, using a tissue homogenizer, and used immediately or frozen in aliquots at −80 degC for future use. The concentration of inositol-1-phosphate was determined in the homogenates using the IPOne TR-FRET assay (CisBio cat no 621PAPEB), following the manufacturer's instruction
# Long Evans Hooded rats = assay: In vivo measurement of salivation; parameters: species or system rat; conditions: Compound 3 0.3 mg/kg
# Experimental: Suitable doses of test compounds or drug substances were administered using standard techniques to Long Evans Hooded rats weighing 225 to 350 grams, or CD-1 mice weighing 30 to 50 grams, which had been anesthetized using 2-3.5%% of isoflurane in oxygen. The animals were placed slightly head-down on an inclined, heated ramp. Rectal temperature was monitored using a thermocouple and the temperature of the heating pad was adjusted manually to maintain normal body temperature. Saliva was collected from the mouth by absorption onto pre-weighed slips of filter paper. The filter paper was changed periodically and the amount of saliva was measured by weighing the filter paper slips.
# rats = assay: Salivation after transdermal iontophoretic co-delivery of agonist and antagonist from one patch; format: in vivo, rat; conditions: anesthetized rats, device with 1 mg Compound 3 plus 0.01 mg antagonist
# Experimental: Experimental compounds and drug substances were delivered transdermally in rats using iontophoresis as follows. The fur was shaved from the backs of Long Evans Hooded rats weighing 225 to 325 grams, using electric clippers. Experimental compounds and drug substances were formulated at suitable concentrations an aqueous mixture of the following composition:
# The polyvinyl alcohol/water was heated to 95 degC until it became clear, then the other constituents were added and mixed well. The mixture was introduced into suitable molds containing a disc-shaped cavity 2.2 cm diameter and 2.2 mm deep. Molds may be fabricated using two glass sheets separated by a silicone rubber sheet with suitable sized cavities and filling ports cut-outs. The molds were subject to 3 freeze-thaw cycles at −80 degC and 20 degC until a firm cryogel was obtained. The gels were separated from the molds and trimmed into a circular shape. The gel was placed in a silicone rubber casing with one face in contact with a circular silver foil anodic electrode (22 mm dia/250 microns thick), and the assembly was placed on the shaved skin of the rat such that the other face was in contact with the skin on one side of the back of the rat. The rubber casing formed a seal over and around the gel/electrode assembly. […] This was placed on the other side of the shaved back of the rat, the edges of the gel discs being about 20 mm apart at their nearest point. A DC voltage was applied across the two patches from a constant-current DC power supply and the voltage adjusted to obtain the desired current, such that the skin of the animal completed the electrical circuit.
# The devices were placed on shaved backs of anesthetized rats and salivation was measured.
# The animals were placed slightly head-down on an inclined, heated ramp. Rectal temperature was monitored using a thermocouple and the temperature of the heating pad was adjusted manually to maintain normal body temperature. Saliva was collected from the mouth by absorption onto pre-weighed slips of filter paper. The filter paper was changed periodically and the amount of saliva was measured by weighing the filter paper slips.
# [2] = Immediate release capsules in healthy male volunteers: serum pharmacokinetics, metabolites, cholinergic side effects; format: in vivo, human
# Experimental: A single 5 mg capsule or 5×0.2 mg capsules (1 mg total dose) were administered orally to healthy male volunteer human subjects with 125 ml of water. Six such subjects receiving the 5 mg dose, and a different 6 subjects received the 1 mg dose.
# Subjects were monitored, among other things, for typical signs of muscarinic cholinergic action, such as increased salivation, lachrimation and diaphoresis. Venous blood samples were drawn at various intervals after dosing from each subject into standard tubes for bioanalytical and pharmacokinetic analysis. The blood was allowed to clot, and the serum separated, using common clinical laboratory techniques. Serum samples were stored at −20 deg C. until used for analysis.
# MCD-386HCl, which exists in serum principally as the protonated form of MCD-386, was assayed in clinical serum samples as follows. 200 μL aliquots of serum samples were spiked with 50.0 μL of diluent for subject samples and QC samples and 50 μL of the appropriate intermediate standard solution for standards. Twenty five microliters (25.0 μL) of working internal standard stock solution and 40.0 μL of 10 N sodium hydroxide was then added and the samples were vortex mixed. Three milliliters (3.00 mL) of ethyl acetate was added followed by 5 minutes of vigorous vortexing and centrifugation. The top organic layer was transferred to a clean tube, evaporated to dryness, and the sample was reconstituted with 100 μL of diluent (0.1% formic acid). A 10 μL aliquot of this reconstituted sample was injected into Phenomenex Synergy 4μ POLAR-RP, 75×2.0 mm (P/N 00C-4336-B0) on a Waters Acuity HPLC LC system, and eluted using a gradient of from 12% to 90% acetonitrile containing 0.1% formic acid/0.1% formic acid in water. The eluant flow of the LC was injected by Turbo Ion Spray (positive ion) into a Sciex API 4000 (Applied Biosystems). The MS/MS transitions monitored were 181.1 m/z to 111.0 m/z for MCD-386HCl and 186.1 m/z to 111.1 m/z for the internal standard, D5-MCD-386HCl. The calibration curve was linear between 0.100 ng/mL and 50.0 ng/mL for MCD-386HCl. The lower limit of quantitation (LLOQ) was 0.100 ng MCD-386HCl per mL of serum. MCD-386HCl concentrations are expressed as free base.
# The bioanalytical method for the extraction of metabolites from serum samples entailed adding 450 uL of a 90% acetonitrile+0.1% formic acid solution to 50 uL of the serum samples. The samples were vortexed and centrifuged at 16,000x g at 4° C. for 10 minutes. The supernatants were transferred to 3K molecular weight cut-off (MWCO) spin filters (Pall, Nanosep, #82031-346). Samples were filtered by centrifugation at 13,000×g at 4° C. for 20 minutes. The filtrates were transferred to a 96-well plate and sealed for LC/MS/MS analysis. The system used for this analysis was a Shimadzu Prominence HPLC system. […] The autosampler was maintained at 4° C. Injection volumes for all samples and standards were 40 uL. MRM methods for two possible metabolites were made. An API 3200 triple-quadrupole mass spectrometer with a Turbo V source (Applied Biosystems) was used, following commonly used procedures which would be readily set up by a person skilled in the art of LC-MS/MS. The counts of the characteristic parent and product ions of the free base metabolites were converted to concentration units by comparison with a standard calibration curve.
# The bioanalytical results were analyzed using Win Nonlin software and common pharmacokinetic methods known to those skilled in the art.
# [3] = target: T1, human muscarinic M1 receptors (Homo sapiens, UniProt P11229); assay: Stimulation of inositol phosphate production in A9L cells, human M1 (IPOne TR-FRET); format: cell-based
# T1 construct: host or cells: A9L cells
# T1 sequence (P11229 1-460): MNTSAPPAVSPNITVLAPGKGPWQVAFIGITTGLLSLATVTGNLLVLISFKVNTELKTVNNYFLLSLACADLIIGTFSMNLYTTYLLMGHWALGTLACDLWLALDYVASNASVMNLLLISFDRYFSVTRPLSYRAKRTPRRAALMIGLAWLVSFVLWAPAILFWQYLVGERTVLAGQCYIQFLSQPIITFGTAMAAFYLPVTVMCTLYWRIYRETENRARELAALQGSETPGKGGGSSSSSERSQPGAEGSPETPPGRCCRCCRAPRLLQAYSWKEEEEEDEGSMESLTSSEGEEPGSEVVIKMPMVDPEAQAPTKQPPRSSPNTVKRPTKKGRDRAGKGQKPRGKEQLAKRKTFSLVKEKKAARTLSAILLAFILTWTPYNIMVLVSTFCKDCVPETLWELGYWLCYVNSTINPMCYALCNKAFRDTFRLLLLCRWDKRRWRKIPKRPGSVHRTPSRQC
# Experimental: (§1) Muscarinic M1 and M3 agonist activity was evaluated by measuring the stimulation of inositol phosphate (IP) production in the presence of lithium chloride from A9L cells transfected with expression plasmids containing human muscarinic M1 and M3 receptors, respectively. The cell lines were a gift from Professor W Messer, and the methods were as described in Tejada F R et al. J. Med. Chem. 2006; 49: 7518-31 except that the assay was scaled down to run in 384 well plates, and IP was measured in the cell lysates using the non-isotopic IPOne TR-FRET assay (CIS-BIO, Inc).
# (§2) Cells were grown to 90% confluence in 384 well hi-base plates (Greiner Bio-One), compounds were added at suitable concentrations in growth medium containing 10 mM LiCL, buffered with an extra 10 mM HEPES (pH7.4), and incubated for 60 minutes at 37° C. Cells were lysed and assayed for IP following the manufacturer's instructions.
# (§3) The value for a full agonist is 100%, while partial agonists give values below 100%.
# [4] = target: T2, human muscarinic M3 receptors (Homo sapiens, UniProt P20309); assay: Stimulation of inositol phosphate production in A9L cells, human M3 (IPOne TR-FRET); format: cell-based
# T2 construct: host or cells: A9L cells
# Experimental: as §1, §2, §3
# [5] = potency class relative to carbachol
# T2 sequence (P20309 whole entry): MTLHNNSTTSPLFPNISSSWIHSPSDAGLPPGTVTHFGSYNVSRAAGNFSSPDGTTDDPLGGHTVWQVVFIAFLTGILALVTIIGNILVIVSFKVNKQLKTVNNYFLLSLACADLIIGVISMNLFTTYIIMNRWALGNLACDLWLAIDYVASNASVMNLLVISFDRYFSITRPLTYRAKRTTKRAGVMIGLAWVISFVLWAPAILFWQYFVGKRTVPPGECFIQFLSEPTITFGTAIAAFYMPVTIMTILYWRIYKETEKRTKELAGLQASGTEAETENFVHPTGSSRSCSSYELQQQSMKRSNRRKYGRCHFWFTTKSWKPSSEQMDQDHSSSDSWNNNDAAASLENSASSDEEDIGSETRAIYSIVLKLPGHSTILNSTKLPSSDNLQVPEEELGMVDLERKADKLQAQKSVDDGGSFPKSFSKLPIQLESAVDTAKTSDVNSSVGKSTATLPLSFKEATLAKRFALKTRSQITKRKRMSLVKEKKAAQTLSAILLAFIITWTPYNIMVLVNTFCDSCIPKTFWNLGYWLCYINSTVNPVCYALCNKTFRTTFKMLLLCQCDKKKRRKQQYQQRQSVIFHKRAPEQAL
structure (smiles),measurement,setting,value
"C[N+]1(C)[C@@H]2C[C@@H](OC(=O)[C@H](CO)c3ccccc3)C[C@H]1[C@@H]1O[C@@H]12 [NMS, N-methylscopolamine]",Block of increase in salivary gland inositol phosphate caused by Compound 3,[1]; antagonist 0.003 mg/kg,some breakthrough activation
same,Block of increase in salivary gland inositol phosphate caused by Compound 3,[1]; antagonist 0.03 mg/kg to 0.01 mg/kg,nearly as effective as 0.1 mg/kg
same,Block of increase in salivary gland inositol phosphate caused by Compound 3,[1]; antagonist 0.1 mg/kg,completely block
same,Inhibition of increase in hippocampal inositol phosphate caused by Compound 3,[1]; antagonist 0.1 mg/kg,does not inhibit
same,Decrease in salivation caused by Compound 3,Long Evans Hooded rats,dose-dependent decrease in salivation
same,Reduction of salivation caused by transdermal iontophoretic delivery of Compound 3,rats,greatly reduced
C[N+]1(C)CCC(OC(=O)C(O)(c2ccccc2)C2CCCC2)C1 (stereo not shown) [glycopyrrolate],Block of increase in hippocampal inositol phosphate caused by Compound 3,[1]; antagonist 0.03 mg/kg,without blocking
same,Block of increase in salivary gland inositol phosphate caused by Compound 3,[1]; antagonist 0.03 mg/kg,can block
same,Reduction of salivation caused by transdermal iontophoretic delivery of Compound 3,rats,greatly reduced
"CCc1noc(C2CN=CNC2)n1 (stereo not shown) [MCD-386HCl, 5-(3-ethyl-1,2,4-oxadiazol-5-yl)-1,4,5,6-tetrahydropyrimidine]",Observable cholinergic side effects,[2]; 1 mg total dose cohort,none of the subjects in the 1 mg total dose cohort experienced any observable cholinergic side effects
same,Diaphoresis,[2]; 5 mg cohort,"Two of these latter subjects experienced mild, transient diaphoresis that resolved within a short period, and two subjects experienced moderate diaphoresis"
same,Hypersalivation,[2]; 5 mg cohort,One of the latter subjects also experienced mild hypersalivation
same,Observable cholinergic side effects,[2]; 5 mg cohort,"two subjects experienced no observable side effects, and four subjects showed signs of muscarinic cholinergic activity"
same,Main metabolite in serum,[2]; 5 mg dose cohort,identified in the serum samples of five out of six subjects
"Cc1noc(C2(F)CCCNC2)n1 (stereo not shown) [Compound 35, 5-(3-fluoropiperidin-3-yl)-3-methyl-1,2,4-oxadiazole]",huM1/A9L ED50 relative to CCh,[3]; [5],− (potency < 0.5-0.1x CCh)
same,huM3/A9L ED50 relative to CCh,[4]; [5],−− (potency < 0.1x CCh)
same,PAMPA units,PAMPA test,16.3
NC(=O)C(c1ccccc1)(c1ccccc1)[C@@H]1CCN(CCc2ccc3c(c2)CCO3)C1 [darifenacin],Block of increase in salivary gland inositol phosphate caused by Compound 3,[1]; antagonist 0.1 mg/kg,less effective
same,Reduction of salivation caused by transdermal iontophoretic delivery of Compound 3,rats,"reduced salivation, but were less effective"
CCN(CC)CC#CCOC(=O)C(O)(c1ccccc1)C1CCCCC1 (stereo not shown) [oxybutinin],Block of increase in salivary gland inositol phosphate caused by Compound 3,[1]; antagonist 0.1 mg/kg,less effective
same,Reduction of salivation caused by transdermal iontophoretic delivery of Compound 3,rats,"reduced salivation, but were less effective"
"Cc1noc(C2CN3CCC2CC3)n1 (stereo not shown) [Compound 37, 3-methyl-5-(quinuclidin-3-yl)-1,2,4-oxadiazole, reference compound]",huM1/A9L ED50 relative to CCh,[3],++ (key: ++: potency > 10x CCh; +: potency 2-10x CCh; +/−: potency 0.5-2x CCh; −: potency < 0.5-0.1x CCh; −−: potency < 0.1x CCh; inactive: potency too low to determine)
same,Potency and efficacy at M1 muscarinic receptors,[3]; Table 12,highly potent
same,Selectivity for M1 versus M3 receptors,[3]; huM1/A9L versus huM3/A9L,essentially non-selective between M1 and M3 receptors
same,huM3/A9L ED50 relative to CCh,[4],++ (key: ++: potency > 10x CCh; +: potency 2-10x CCh; +/−: potency 0.5-2x CCh; −: potency < 0.5-0.1x CCh; −−: potency < 0.1x CCh; inactive: potency too low to determine)
same,PAMPA units,PAMPA test,3.02
CNC(=C[N+](=O)[O-])NCCSCc1ccc(CN(C)C)o1 [Ranitidine],PAMPA units,,0.26
Clc1cccc(Cl)c1N=C1NCCN1 [Clonidine],PAMPA units,,7.95
CC(C)[N+](C)(CCOC(=O)C1c2ccccc2Oc2ccccc21)C(C)C [propantheline],Block of increase in hippocampal inositol phosphate caused by Compound 3,[1]; antagonist 0.03 mg/kg,without blocking
same,Block of increase in salivary gland inositol phosphate caused by Compound 3,[1]; antagonist 0.03 mg/kg,can block
same,Reduction of salivation caused by transdermal iontophoretic delivery of Compound 3,rats,greatly reduced
